# Patent US4708966A, “Novel anti-inflammatory agents, pharmaceutical compositions and methods for reducing inflammation” (The Procter & Gamble Company, priority 1986, dated 1987)
# System: adjuvant arthritis (modified Freund's adjuvant)
# Assay: Adjuvant Arthritis - Therapeutic
# Type: in vivo, Male Sprague-Dawley rats
# Conditions: 0.5 mg/kg, 1 x/day, oral, days 20 through 28
# Procedure: Adjuvant Arthritis Methodology
# Male Sprague-Dawley rats weighing 167-170 gm are allowed to acclimate to the laboratory for at least 3 days. Ten rats are then assigned to the healthy control group and the remaining rats are assigned to the arthritic group. On day 0, the rats in the arthritic group are injected subcutaneously in the middle of their tail with a modified Freund's adjuvant (MFA) at a dosage of 0.05 ml/100 gm body weight. The MFA is made by grinding Mycobacterium butyricum (Mb) and then mixing with mineral oil at a concentration of 10 mg Mb/ml of mineral oil. This is mixed in an Omni mixer for 45 minutes.
# Paw volumes and body weights are determined on days -1, 6, 13, 19, 26, and 29. On day 19, paw volume changes from day -1 are determined for the arthritic group. The rats with paw volume changes≥0.50 ml but ≤2.50 ml are randomized by paw volume changes into the treatment groups on day 20. […] On day 29, two representative rats from each treatment group are photographed, paw volumes and body weights are determined, and then the rats are sacrificed with CO2 and x-rays are taken.
# The radiographs are used to grade bone resorption. Bone resorption is graded in 20 areas of the fore and hind paws. The areas for grading on the hind paw are: distal femur end, proximal tibia and tibula, distal end of the tibia and the small bone under the tibia, calcaneous, tarsus, and metatarsus. The areas on the fore paws are: radius, ulna, carpus, and metacarpus. Each area is given a grade of 0 (no resorption) or 1 (resorption) for possible grade of 20 of each animal.
smiles,measurement,value
"COc1ccc2c(c1)c(CC(=O)O)c(C)n2C(=O)c1ccc(Cl)cc1 [Indomethacin, reference compound]",Body Weights % Increase,7%
same,Bone Resorption % Inhibition,15%
same,Paw Volume % Decrease,43%
